Data taken from ChEMBL document CHEMBL3044742, “Pharmacophagous feeding stimulant activity of neo-clerodane diterpenoids for the turnip sawfly, Athalia rosae ruficornis” (2004).

How the values were obtained:
Format in all cases: functional
[1] = system: Athalia rosae ruficornis; assay: Pharmacophagous feeding stimulant activity in Athalia rosae ruficornis assessed as insect fed on paper for more than 10 seconds at 10^-6 g/filter paper
[2] = system: Athalia rosae ruficornis; assay: Pharmacophagous feeding stimulant activity in Athalia rosae ruficornis assessed as insect fed on paper for more than 10 seconds at 10^-7 g/filter paper
[3] = system: Athalia rosae ruficornis; assay: Pharmacophagous feeding stimulant activity in Athalia rosae ruficornis assessed as insect fed on paper for more than 10 seconds at 10^-8 g/filter paper
[4] = system: Athalia rosae ruficornis; assay: Pharmacophagous feeding stimulant activity in Athalia rosae ruficornis assessed as insect fed on paper for more than 10 seconds at 10^-5 g/filter paper

Compound	Activity [1] [%]	Activity [2] [%]	Activity [3] [%]	Activity [4] [%]
CC(=O)OC[C@@]12[C@@H](OC(C)=O)C[C@@H](C)[C@](C)([C@@H]3C[C@H]4C=CO[C@H]4O3)[C@H]1CC[C@H](OC(C)=O)[C@]21CO1 [3-EPICARYOPTIN]	80	80	80	80
CC(=O)OC[C@@]12[C@@H](OC(C)=O)C[C@@H](C)[C@](C)([C@@H]3C[C@H]4C=CO[C@H]4O3)[C@H]1C[C@@H](O)[C@H](OC(=O)C(C)C)[C@]21CO1 [AJUGACHIN A]	80	80	80	80
C/C=C(\C)C(=O)O[C@@H]1CC[C@]2(CO2)[C@]2(COC(C)=O)[C@@H](OC(C)=O)C[C@@H](C)[C@](C)(C[C@H](O)C3=CC(=O)OC3)[C@@H]12 [AJUGAMARIN A1]	<10	<10	<10	<10
C/C=C(\C)C(=O)O[C@@H]1CC[C@]2(CO2)[C@]2(COC(C)=O)[C@@H](OC(C)=O)C[C@@H](C)[C@](C)(C[C@H](OC(=O)[C@@H](C)CC)C3=CC(=O)OC3)[C@@H]12 [AJUGAMARIN G1]	<10	<10	<10	<10
C/C=C(\C)C(=O)O[C@@H](C[C@@]1(C)[C@H](C)C[C@H](OC(C)=O)[C@]2(COC(C)=O)[C@@H]1[C@H](OC(=O)[C@@H](C)CC)CC[C@]21CO1)C1=CC(=O)OC1 [AJUGAMARIN H1]	<10	<10	<10	<10
CC[C@H](C)C(=O)O[C@H]1CC(=O)[C@@H]2[C@@](C)(CCC3=CC(=O)OC3)[C@H](C)C[C@H](OC(C)=O)[C@@]2(COC(C)=O)[C@@]12CO2 [AJUGAREPTANSONE A]	<10	<10	<10	10
C/C=C(\C)C(=O)O[C@@H](C[C@@]1(C)[C@H](C)C[C@H](OC(C)=O)[C@]2(COC(C)=O)[C@@H]1[C@H](OC(=O)/C(C)=C/C)CC[C@]21CO1)C1=CC(=O)OC1 [AJUGATAKASIN A]	<10	<10	<10	<10
CC[C@H](C)C(=O)O[C@@H](C[C@@]1(C)[C@H](C)C[C@H](OC(C)=O)[C@]2(COC(C)=O)[C@@H]1[C@H](OC(=O)[C@@H](C)CC)CC[C@]21CO1)C1=CC(=O)OC1 [AJUGATAKASIN B]	<10	<10	<10	<10
CC[C@H](C)C(=O)O[C@@H](C[C@@]1(C)[C@H](C)C[C@H](OC(C)=O)[C@]2(COC(C)=O)[C@@H]1CC[C@H](O)[C@]21CO1)C1=CC(=O)OC1 [AJUGATANSIN B1]	<10	<10	<10	<10
CC(=O)OC[C@@]12[C@@H](OC(C)=O)C[C@@H](C)[C@](C)([C@@H]3C[C@H]4C=CO[C@H]4O3)[C@H]1C[C@@H](O)[C@H](O)[C@]21CO1 [ATHALIADIOL]	80	40	40	80
CC[C@H](C)C(=O)O[C@@H](C[C@@]1(C)[C@H](C)C[C@H](OC(C)=O)[C@]2(COC(C)=O)[C@@H]1C(=O)C[C@H](O)[C@]21CO1)C1=CC(=O)OC1 [Ajugareptone]	<10	<10	<10	<10
CC[C@@](C)(OC(C)=O)C(=O)O[C@H]1[C@H](O)C[C@@H]2[C@@](C)([C@@H]3C[C@H]4C=CO[C@H]4O3)C(C)=C[C@H](OC(C)=O)[C@@]2(COC(C)=O)[C@@]12CO2 [CLERODENDRIN A]	40	<10	<10	40
CC[C@@](C)(OC(C)=O)C(=O)O[C@H]1[C@H](O)C[C@@H]2[C@@](C)([C@@H]3C[C@H]4C=CO[C@H]4O3)[C@H](C)C[C@H](OC(C)=O)[C@@]2(COC(C)=O)[C@@]12CO2 [CLERODENDRIN B]	80	80	40	80
CC[C@H](C)C(=O)O[C@H]1[C@H](O)C[C@@H]2[C@@](C)([C@@H]3C[C@H]4C=CO[C@H]4O3)[C@H](C)C[C@H](OC(C)=O)[C@@]2(COC(C)=O)[C@@]12CO2 [CLERODENDRIN D]	80	80	80	80
CC(=O)OC[C@@]12[C@@H](OC(C)=O)C=C(C)[C@](C)([C@@H]3C[C@H]4C=CO[C@H]4O3)[C@H]1C[C@@H](O)[C@H](OC(=O)C(C)(C)OC(C)=O)[C@]21CO1 [CLERODENDRIN E]	10	<10	<10	10
CC(=O)OC[C@@]12[C@@H](OC(C)=O)C=C(C)[C@](C)([C@@H]3C[C@H]4C=CO[C@H]4O3)[C@H]1C[C@@H](O)[C@H](OC(=O)[C@](C)(OC(C)=O)[C@@H](C)OC(C)=O)[C@]21CO1 [CLERODENDRIN F]	10	<10	<10	10
CCC(C)C(=O)O[C@H]1[C@H](O)C[C@@H]2[C@@](C)([C@@H]3C[C@H]4C=CO[C@H]4O3)C(C)=C[C@H](OC(C)=O)[C@@]2(COC(C)=O)[C@@]12CO2 (some centres undefined) [CLERODENDRIN G]	40	<10	<10	40
CC(=O)OC[C@@]12[C@@H](OC(C)=O)C[C@@H](C)[C@](C)([C@@H]3C[C@H]4C=CO[C@H]4O3)[C@H]1C[C@@H](O)[C@H](OC(=O)[C@](C)(OC(C)=O)[C@@H](C)OC(C)=O)[C@]21CO1 [CLERODENDRIN H]	80	80	80	80
CC(=O)OC[C@@]12[C@@H](OC(C)=O)C=C(C)[C@](C)([C@@H]3C[C@H]4C=CO[C@H]4O3)[C@H]1C[C@@H](O)[C@H](OC(=O)[C@](C)(OC(C)=O)[C@H](C)OC(C)=O)[C@]21CO1 [CLERODENDRIN I]	10	<10	<10	10
CC(=O)OC[C@@]12[C@@H](OC(C)=O)C[C@@H](C)[C@](C)([C@@H]3C[C@H]4C=CO[C@H]4O3)[C@H]1CCC[C@]21CO1 [CLERODIN]	80	80	40	80
CCC(C)C(=O)O[C@@H]1CC[C@]2(CO2)[C@]2(COC(C)=O)[C@@H](OC(C)=O)C[C@@H](C)[C@](C)(C[C@H](O)C3=CC(=O)OC3)[C@@H]12 (some centres undefined) [DIHYDROAJUGAMARIN]	<10	<10	<10	<10
